Measured values: patent US20120237614A1, “PEPTIDE ABLE TO DISRUPT THE PROTEIN COMPLEX BETWEEN THE HIS273 MUTADED P53 PROTEIN AND THE ONCOSUPPRESSIVE P73 PROTEIN IN TUMOR CELLS AND THERAPEUTIC USES THEREOF” (priority 2009, published 2012)

Legend:
[1] = test system: HT29 cells; assay: In vivo tumorigenicity test (xenograft of peptide transfected HT29 cells); details: naked mice, s.c. 5×10^5 peptide transfected cells/mouse, 5 weeks
Experimental: In order to assay SIMP1 in vivo antitumor activity nu/nu […] mice were administered subcutaneously with SIMP1, SIMP1KO and SIMP5M transfected HT29 cells (5.0×10^5 cells/mouse). Tumour growth has been monitored over 5 weeks.
Xenograft assays have been carried out by administration to naked mice subcutaneous injections containing 5×10^5 cells/mouse of SIMP1, SIMP1KO and SIMP5M peptide transfected colon and rectum tumour human cell line (nu/nu CD1 Charles River mice). The tumour growth together with animal body weight is monitored for 5 weeks in order to estimate the chronic toxicity
The experiments have been carried out by administration to naked mouse (nu/nu CD1 Charles River mice) subcutaneous injections containing 5×10^5 cells/mouse. The tumour growth has been monitored together with animal body weight for 5 weeks in order to estimate possible not occurred chronic toxic effects (FIG. 5).

[2] = test system: tumour cell lines containing His-175 or His-273 p53 mutation; assay: Summary of activity by p53 mutation type; assay type: cell-based; details: for activity on p53 mutant categories (His-175, His-273): summary statement; for specificity for p53 mutation type: FIG. 6 summary
From the text: SIMP1M: FQQSSTARSATW (SEQ ID NO:16) (MW: 1369, PI: 9.75) peptide is a mutated version of SIMP1 peptide wherein K138 residue has been replaced by Arginine.
FIG. 6 that SIMP peptides and by-products thereof displace protein complexes involving mutated protein p53 and p73.

[3] = molecular target: GST-p53 His175 (Homo sapiens, UniProt P04637, R175H); assay: Dot immunobinding test with purified GST-p53 fusion proteins; assay type: binding; details: 20 μg GST fusion purified proteins
Experimental: (A) Total extracts deriving from SKBR3, (His-175) HT29, (His-273) and H1299 (p53 free) tumour cells have been incubated (1 mg) on SIMP1 and SIMPIKO peptide labelled nitrocellulose membrane and Dot Blot analysed. In (B) the membranes have been incubated with 20 μg of wild type WT GST-p53 purified protein or GST-p53 His-175, GST-p53-His-175, 74-298 or GST alone. In both experiments dots have been detected by labelling the membranes with anti-p53 (DO1) antibody
Nitrocellulose membranes have been cut, washed with water and blotted on the paper filters. The peptides at 250 mM concentration have been transferred on membrane. Labelled membrane has been washed for 10 min. with TBST buffer (10 mM Tris-HCl pH 7.4, 150 mM NaCl, 0.05% (v/v) Tween-20) and then blocked for 45 min with TBST/5% milk. Then the membranes have been incubated for 6 hours at 4° C. in shaker with 1 mg of total protein extract or 20 μg of GST fusion purified proteins. Successively the membranes have been washed with TBST buffer and decorated with anti-p53 antibody (DO1) as a primary antibody. As secondary antibody horse peroxidase conjugated goat antibody has been used. Immunolabelled lanes have been detected using chemiluminescence analysis (Pierce).
The membranes decorated with SIMP peptides also have been incubated with GST-p53 His175, GST p53His74-298, GST WTp53 fusion proteins, GST control.

[4] = test system: SW480 and MDA-MB-468; details: cell lines containing other types of mutation (SW480, MDA-MB-468); cited from earlier work
[5] = test system: SKBR3 tumour lines, containing his-175 mutation; details: SKBR3, his-175 mutation; cited from earlier work
[6] = test system: m-p53 His273 inhibition on p73 transcription activity; assay: Transactivation test with pLUC-BAX reporter in transiently transfected H1299 cells; assay type: cell-based, human; details: peptides 20 μM each
Experimental: (A) MDA-MB-468 (5×10^5) cells have been transfected using a lipofectamine containing mixture, βgal expression vector, which normalizes transfection efficiency, and SIMPI peptide (20 μM). Total cellular lysates (1 mg), have been immunoprecipitated with antibodies directed against p73 and immunoglobulins (IgG). Immunoprecipitates and an aliquot (50 μg) of total lysate after 12% acrylamide gel electrophoretic run have been transferred on nitrocellulose membrane and labelled with antibodies shown in the figure. (B) MDA-MB-468 cells, have been transfected using SIMP1 and SIMP5,6. peptides. Successively, cells have been washed and stimulated with 3 μM Adriamycin. Total obtained lysates (30 μg) have been assayed for the expression of PARP and BAX apoptotic proteins. Lysate has been normalized by assaying γ-tubulin expression. (C-D). Transactivation tests have been carried out by transient transfection of H1299 cells using a mixture containing lipofectamine, SIMP1, SIMP5,6 indicated plasmids (20 μM each) together with pLUC-BAX reporter vector. To each reaction mixture an equal amount of […] expression vector was added, in order to normalize the transfection efficiency. […]
To this end, we have analyzed the ability in blocking the His273 p53 induced inhibition on transcription activity. […]

[7] = molecular target: T1, m-p53His-273/p73 complex (Homo sapiens, UniProt P04637, R273H); assay: Coprecipitation (immunoprecipitation) test of the m-p53/p73 complex in MDA-MB-468 cells; assay type: cell-based; details: His-273 mutation, peptide 20 μM, anti-p73 immunoprecipitation
T1 construct: Total cellular lysates (1 mg), have been immunoprecipitated with antibodies directed against p73; endogenous in cells; host or cells: MDA-MB-468
Experimental: (§1) (A) MDA-MB-468 (5×10^5) cells have been transfected using a lipofectamine containing mixture, βgal expression vector, which normalizes transfection efficiency, and SIMPI peptide (20 μM). Total cellular lysates (1 mg), have been immunoprecipitated with antibodies directed against p73 and immunoglobulins (IgG). Immunoprecipitates and an aliquot (50 μg) of total lysate after 12% acrylamide gel electrophoretic run have been transferred on nitrocellulose membrane and labelled with antibodies shown in the figure. (B) MDA-MB-468 cells, have been transfected using SIMP1 and SIMP5,6. peptides. Successively, cells have been washed and stimulated with 3 μM Adriamycin. Total obtained lysates (30 μg) have been assayed for the expression of PARP and BAX apoptotic proteins. Lysate has been normalized by assaying γ-tubulin expression. (C-D). Transactivation tests have been carried out by transient transfection of H1299 cells using a mixture containing lipofectamine, SIMP1, SIMP5,6 indicated plasmids (20 μM each) together with pLUC-BAX reporter vector. To each reaction mixture an equal amount of […] expression vector was added, in order to normalize the transfection efficiency.
The cell extracts have been processed in a lysis buffer containing 50 mm Tris HCl pH 8, 100 mM NaCl, 10% glycerol, 1% Triton X-100, 1 mM EDTA, 100 mM NaF, MgCl2, 1 mM PMSF, protease and phosphatase inhibitors. Then extracts have been sonicated and centrifuged at 14.000 rpm for 10 min for the debris removal.
50 μg of solubilised proteins have been separated by electrophoresis on 10 or 15% SDS-polyacrylamide gel. Western blot analysis has been carried out using anti-p53 primary antibodies (DO1 Calbiochem), rabbit anti-PARP, rabbit polyclonal anti-Bax, anti-p21 and anti-tubulin monoclonal antibodies (Calbiochem). […] Immunolabelled lanes have been detected using chemiluminescence analysis (Pierce). […]
In order to evaluate the activity of SIMPI peptide and SIMP1KO and SIMP1M derivatives the ability in disrupting the oncogenic m-p53His-273/p73 complex has been analysed.

[8] = test system: MDA-MB-468 cells; assay: Apoptotic tests (PARP and BAX expression, Western blot) after Adriamycin; assay type: cell-based, human; details: MDA-MB-468, 3 μM Adriamycin
Experimental: as §1
50 μg of solubilised proteins have been separated by electrophoresis on 10 or 15% SDS-polyacrylamide gel. Western blot analysis has been carried out using anti-p53 primary antibodies (DO1 Calbiochem), rabbit anti-PARP, rabbit polyclonal anti-Bax, anti-p21 and anti-tubulin monoclonal antibodies (Calbiochem). Goat anti-mouse and goat anti-rabbit horse peroxidase conjugated secondary antibodies (Amersham) have been used for the expression analyses. Immunolabelled lanes have been detected using chemiluminescence analysis (Pierce).
To this end cell viability and apoptotic tests (FIG. 1B, FIG. 4 B-C) on MDA-MB468 breast carcinoma have been carried out.

[9] = test system: MDA-MB468 breast and HT29 colon carcinoma cell lines; assay: Cell viability / proliferation assays after peptide transfection; assay type: cell-based, human; details: peptide transfected cells
Experimental: (A) In order to verify the SIMPI peptide specificity, independently from the cellular context, we tested SIMP1 peptides in some Adriamicyn treated colon carcinoma HT29 (His-273). cell lines. The cells have been transfected using a mixture containing lipofectamine, pLUC-BAX plasmid, β-galactosidase expression vector, SIMP1 and SIMP5M control peptides. 24 hours post-transfection, have been treated with 3 μM Adriamicyn. (B-C). Viability and inhibition assays have been carried out after transfection using SIMP1 and SIMP5M peptides in HT29 (colon cancer) and MDA-MB-468 (breast cancer) cell lines
Cell viability has been tested using Trypan Blue exclusion assays.
We observed a reduction of cell proliferation in MDA-MB468 breast and HT29 colon carcinoma cell lines.

[10] = test system: MDA-MB-468 cells (His-273 p53 mutation); assay: Transactivation test (pLUC-BAX, pLUC-p21) in Adriamycin treated MDA-MB-468 cells; assay type: cell-based, human; details: MDA-MB-468, 3 μM Adriamycin 24 hours post-transfection, luciferase reporter
Experimental: MDA-MB-468 cells have been transfected using a mixture containing lipofectamine, pLUC-BAX plasmid, β-galactosidase expression vector, SIMP1 and SIMP control peptides. The cells, 24 hours post-transfection, have been treated with 3 μM Adriamycin.
MDA-MB-468 cells have been transfected using a mixture containing lipofectamine, pLUC-BAX plasmid, pLUC-p21, β-galactosidase expression vector, SIMP1 peptides and SIMP1M and SIMP1KO derived mutant thereof. The cells, 24 hours post-transfection, have been treated with 3 μM Adriamicyn and then processed.
SKBR3, HT-29, MDA-MB-468 cell lines have been transfected with Lipofectamine 2000 according to the supplier instructions (InVitrogen).
Cells (1.5×10^5) have been transiently transfected using SIMP peptides, expression plasmids and reporter constructs as internal controls for transfection efficiency. After the transfection, SKBR3, HT-29 and MDA-MB-468 have been incubated with 3 μM ADR over 24 hours. Cells have been washed with cold PBS and re-suspended in lysis buffer (Promega) and incubated for 10 min at room temp. Insoluble material has been centrifuged and luciferase activity has been determined using a commercial kit with a luminometer (Turner).

Row | Sequence | tumour growth (tumour size) in vivo [1] | activity on p53 mutant categories (His-175, His-273) [2] | reaction with GST-p53 fusion proteins (dot blot, anti-p53 DO1) [3] | specificity for p53 mutation type [2] | change in apoptotic response [4] | sensitivity to chemotherapeutic treatment [5] | other results
1 | FQQSSTAASATW (SEQ ID NO1 wherein K is substituted by A) [SIMP1KO] | tumour growth similar to non treated control | displays no activity on both mutant categories | no reaction was observed | – | – | – | –
2 | VVKRCPNHELGRD (p73 SIMP (aa 190-202)) [SIMP5M, control peptide, reference compound] | tumour growth similar to non treated control | – | specifically reacts against his175 m-p53 | specific for His-175 mutation containing tumours | – | – | –
3 | GQRDFNEGQSAPA (p73 SIMP (aa 200-211) wherein Q has been inserted between G (aa200) and R (aa201)) [SIMP6] | – | – | – | – | do not induce changes in the apoptotic response | more sensitive to chemotherapeutic treatment | –
4 | FQQSSTARSATW (SEQ ID NO1 wherein k is substituted by R) [SIMP1M] | meaningful reduction of the growth (tumour size) | displays the same, although increased, functions | – | display specificity for His-273 mutation containing tumours | – | – | restoration of p73 transcription activity inhibited by m-p53 His273 [6]: modify mutated p53/p73 protein complex restoring p73 oncosuppressive functions; disruption of m-p53 His-273/p73 protein complex (p73 bound m-p53 amount) [7]: disrupt selectively m-p53/p73 complex; apoptotic response [8]: increase the apoptotic response to chemotherapeutic agents; activity on tumour cell lines containing different mutation types ([2]; mutations other than His-273): has no activity on tumour cell lines containing different mutation types; cell proliferation in vitro [9]: reduce the cell proliferation in vitro; Adriamycin chemosensitivity / p73 transcription response [10]: increase Adriamycin chemosensitivty
5 | VVKRCPNHE (p73 SIMP (aa 190-198)) [SIMP5] | – | – | – | – | do not induce changes in the apoptotic response | more sensitive to chemotherapeutic treatment | –
